Measured values: patent US9556226B2, “Peptides with antifungal activity and methods of using the peptides” (THE BOARD OF TRUSTEES OF THE UNIVERSITY OF ARKANSAS, priority 2013, dated 2017)
≈ marks a conversion by molar mass, not a printed value. Where two headings read alike, the source gives them in different places. Bridge positions count the residues as written; N and C are the ends. Square brackets hold non-standard residues; d marks the D form. Peptide text beside a SMILES is read from it. I, II: the chains in the order shown.

Legend:
[1] = tested on: Candida albicans SC5314; format: cell-based; conditions: for percent of C. albicans killed at 5 μM concentration: SC5314, 5
Method: Killing assays. The fungicidal activity of the peptides toward Candida albicans was examined by microdilution plate assay as described previously (13). Briefly, from a fresh overnight cultured plate, a single colony was inoculated and diluted in 1 ml of 10 mM sodium phosphate buffer at pH 7.4. Once cell counts had been confirmed by using a hemocytometer, the cells diluted within the same buffer at 1.8×10^5 cells/mil. Cell suspensions of 20 μl were mixed with 20 μl of peptide, which were dissolved in 10 mM sodium phosphate buffer at pH 7.4, and then incubated for 2 hours at 37° C. with shaking at speeds of 550 rpm. The reactions were stopped by the addition of 360 μl yeast nitrogen base (YNB) and then 40 μl of cell suspension was spread onto plates and incubated for 24 hours at 37° C. Sabouraud dextrose agar plates were used for C. albicans killing assay. The number of colony-forming units (CFUs) was counted and each assay was repeated in triplicate. Loss of viability was calculated as [1-(colonies from suspension with peptide/colonies from suspension with no peptide)]×100. For the respiratory activity experiments, Candida albicans was grown in the presence of sodium azide or antimycin A (Sigma Aldrich) before the killing assay was performed.

[2] = tested on: CD1 mice; assay: Acute toxicity testing in CD1 mice (up-down protocol); format: in vivo; conditions: for signs observed on tested animals: IV
Method: To evaluate acute toxicity in animals, CD1 outbred mice were injected via tail vein with either KM12 or KM14 using a standard up-down concentration protocol and observed for any symptoms consistent with the toxicity of the peptides (Table 4). Mice were initially injected with KM12 or KM14 at a concentration of 8 mg/kg. […] Thus the KM12 peptide was deemed safe for animals at concentrations up to 10 mg/kg and the use of 5% glucose versus phosphate-buffered saline was deemed safer for administration to the animals. We will continue to evaluate acute toxicity with other KM peptides (i.e. KM23 and KM29) that show excellent promise as antifungal compounds. In addition, we plan to evaluate these peptides for treatment of superficial mucosal infections with Candida species.
(§1) Animal Studies: For the animal studies, CD-1 mice of 8-25 grams were injected with the antifungal peptides dissolved in either phosphate-buffered saline or 5% glucose. Peptide concentrations used for the injection of mice were chosen using a standard up-down protocol starting at 8 mg/kg. Peptides were injected into mice intravenously, intramuscularly, or intraperitoneally as indicated. The mice were closely monitored lbr signs of distress after injection. After two hours of continuous monitoring, the mice were evaluated daily for two weeks and necropsies performed after two weeks. For evaluating the immunogenicity of the peptides, mice were injected with peptides at a concentration of 10 mg/kg in 5% glucose. The routes of injection were intravenous, intramuscular, or intraperitoneal. Five mice were injected with the peptide per route of injection. The mice were injected with the same dose of peptide once per month for four months. The mice were monitored for signs of distress after each injection. At the end of the fifth month, the mice were euthanized by an overdose of anesthesia and the serum was collected from each mouse individually as assay for activity against the peptide using dot blots.

[3] = tested on: CD1 mice; assay: Immunogenicity in mice, serum dot blot for antibodies against the peptide; format: in vivo
Method: Small peptides have the potential to induce an immune response when used for therapeutic purposes. To examine this possibility, mice were injected once per month for four months with 10 mg/kg of the KM12 peptide either by intravenous, intramuscular, or intraperitoneal route. After the fifth month, the mice were euthanized and the serum collected and tested by dot blot analysis for antibodies directed against the KM12 peptide. For each route of injection, five CD1 mice were used. […] It is plausible that the smaller size of those peptides may not elicit an immune response, yet be effect as antifungals. Such studies are currently underway on KM23 and KM29.
as §1

[4] = protein binding evaluation using bovine calf serum (disulfide bond stability); format: in vitro ADME
Excerpt: To alleviate that difficulty, two additional peptides were synthesized, KM23 and KM29. The KM23 peptide was identical in sequence to KM12 except the cysteine residues were removed resulting in a peptide with the sequence Y -K-R-K-F-F-K-R-K-Y (SEQ ID NO: 3). Since there were two phenylalanines at the center of this symmetrical peptide another peptide, designated KM29 was synthesized to yield the symmetric peptide Y-K-R-K-F-K-R-K-Y (SEQ ID NO: 4) with one phenylalanine at the center.

[5] = tested on: Candida glabrata ATCC90030; assay: Minimum inhibitory concentration (MIC) assay with resazurin; format: cell-based; conditions: 0.125X RPMI medium, range of three independent experiments
Excerpt: (§2) Minimum Inhibitory Concentration Assays: MIC assays were used to evaluate the minimum concentration of each antifungal peptide that would lead to 100% inhibition of growth. In the MIC assay, the colorimetric indicator, resazurin, is used to evaluate cell growth. Resazurin turns pink after reduction by living cells, indicating active cell growth. The unchanged blue color indicated no active cell growth. Colorimetric MIC end-points are interpreted as the lowest drug concentration that remained blue. The lowest dilution that changed from blue to slightly purple is indicative of significant cell growth inhibition; whereas a pink color indicates no growth inhibition. Each individual Candida species was assayed a minimum of three times and the results represent the range of MIC values obtained. The MIC assay was performed as described by the National Committee for Clinical Laboratory Standards M27-A, except we include resazurin as an indicator dye rather than visual inspection and the […] tissue culture medium was used at 0.125× concentration for our assays.

[6] = tested on: Candida kefyr ATCC4135; assay: as above; format: cell-based; conditions: 0.125X RPMI medium, range of three independent experiments
Excerpt: as §2

[7] = tested on: Candida krusel ATCC6258; assay: as above; format: cell-based; conditions: 0.125X RPMI medium, range of three independent experiments
Excerpt: as §2

[8] = tested on: Candida tropicalis ATCC750; assay: as above; format: cell-based; conditions: 0.125X RPMI medium, range of three independent experiments
Excerpt: as §2

[9] = tested on: Candida albicans SC5314; assay: as above; format: cell-based; conditions: 0.125X RPMI medium, range of three independent experiments
Excerpt: as §2

[10] = tested on: Candida lucitaniae ATCC200951; assay: as above; format: cell-based; conditions: 0.125X RPMI medium, range of three independent experiments
Excerpt: as §2

CC(=O)N[C@@H](Cc1ccccc1)C(=O)N[C@@H](CCCCN)C(=O)N[C@@H](CCCNC(=N)N)C(=O)N[C@@H](CCCCN)C(=O)N[C@@H](Cc1ccc(O)cc1)C(N)=O [KM5, F-K-R-K-Y] (Ac-FKRKY-NH2)
Percent killing activity at 25 μM concentration ([1]; 25 μM peptide, Candida albicans SC5314): 85%
LD50 (dose of peptide required to achieve 50% killing) ([1]; Candida albicans SC5314, 2 hours at 37° C., calculated using a linear regression equation): 5 µM

CC(=O)N[C@H](Cc1ccccc1)C(=O)N[C@H](CCCCN)C(=O)N[C@H](CCCNC(=N)N)C(=O)N[C@H](CCCCN)C(=O)N[C@H](Cc1ccc(O)cc1)C(N)=O [KM6, dF-dK-dR-dK-dY] (Ac-[dF][dK][dR][dK][dY]-NH2)
antifungal activity relative to comparator peptides (in words) ([1]; Candida albicans SC5314): equivalent antifungal activity

CC(=O)N[C@@H](Cc1ccccc1)C(=O)N[C@@H](CCCCN)C(=O)N1CCC[C@H]1C(=O)N[C@@H](CCCCN)C(=O)N[C@@H](Cc1ccc(O)cc1)C(N)=O [KM7, FKPKY] (Ac-FKPKY-NH2)
Percent killing activity at 25 μM concentration ([1]; SC5314, 25): 3%

CC(=O)N[C@@H](Cc1ccccc1)C(=O)N[C@@H](CCCCN)C(=O)N[C@@H](CO)C(=O)N[C@@H](CCCCN)C(=O)N[C@@H](Cc1ccc(O)cc1)C(N)=O [KM8, FKSKY] (Ac-FKSKY-NH2)
Percent killing activity at 25 μM concentration ([1]; SC5314, 25): 0%

CC(=O)N[C@@H](Cc1ccccc1)C(=O)N[C@@H](CCCCN)C(=O)N[C@@H](CCCNC(=N)N)C(=O)N[C@@H](CCCCN)C(=O)N[C@@H](Cc1ccccc1)C(N)=O [KM9, FKRKF] (Ac-FKRKF-NH2)
Percent killing activity at 25 μM concentration ([1]; SC5314, 25): 70%

CC(=O)N[C@@H](CCCCN)C(=O)N[C@@H](Cc1ccccc1)C(=O)N[C@@H](CCCNC(=N)N)C(=O)N[C@@H](Cc1ccc(O)cc1)C(=O)N[C@@H](CCCCN)C(N)=O [KM10, KFRYK] (Ac-KFRYK-NH2)
Percent killing activity at 25 μM concentration ([1]; SC5314, 25): 55%

CC(=O)N[C@@H](CS)C(=O)N[C@@H](Cc1ccccc1)C(=O)N[C@@H](CCCCN)C(=O)N[C@@H](CCCNC(=N)N)C(=O)N[C@@H](CCCCN)C(=O)N[C@@H](Cc1ccc(O)cc1)C(N)=O [KM11, C-F-K-R-K-Y] (Ac-CFKRKY-NH2)
antifungal activity relative to comparator peptides (in words) ([1]; Candida albicans SC5314): did not alter its antifungal activity
Percent killing activity at 25 μM concentration ([1]; SC5314, 25): 95%

CC(=O)N[C@@H](CSSC[C@H](NC(C)=O)C(=O)N[C@@H](Cc1ccccc1)C(=O)N[C@@H](CCCCN)C(=O)N[C@@H](CCCNC(=N)N)C(=O)N[C@@H](CCCCN)C(=O)N[C@@H](Cc1ccc(O)cc1)C(N)=O)C(=O)N[C@@H](Cc1ccccc1)C(=O)N[C@@H](CCCCN)C(=O)N[C@@H](CCCNC(=N)N)C(=O)N[C@@H](CCCCN)C(=O)N[C@@H](Cc1ccc(O)cc1)C(N)=O [KM12, Y-K-R-K-F-C-----C-F-K-R-K-Y]
signs observed on tested animals ([2]; 8 mg/kg, in PBS, CD1 mice): no toxicity and None
signs observed on tested animals ([2]; 10 mg/kg, IM, IP, in 5% glucose, CD1 mice (n = 15)): no major toxicity and None
signs observed on tested animals ([2]; 10 mg/kg, in PBS, CD1 mice (n = 5)): None
signs observed on tested animals ([2]; 16 mg/kg, in 5% glucose, CD1 mice (n = 2)): Convulsion, no death
dosage deemed safe / well-tolerated in mice ([2]; intravenous, intramuscular or intraperitoneal route): up to 10 mg/kg
mice displaying a weak immune response (antibodies against the peptide) ([3]; 10 mg/kg once per month for four months, intramuscular injection): 1/5
mice displaying an immune response (antibodies against the peptide) ([3]; 10 mg/kg once per month for four months, intraperitoneal injection): 0/5
mice showing a moderate immune response (antibodies against the peptide) ([3]; 10 mg/kg once per month for four months, intravenous injection): 1/5
immunogenicity (overall, in words) ([3]; CD1 mice, 10 mg/kg monthly, IV, IM or IP): weakly immunogenic
stability of the disulfide bond in bovine calf serum [4]: readily reduced

CC(=O)N[C@@H](CSSC[C@H](NC(C)=O)C(=O)N[C@@H](Cc1c[nH]c2ccccc12)C(=O)N[C@@H](CCCCN)C(=O)N[C@@H](CCCNC(=N)N)C(=O)N[C@@H](CCCCN)C(=O)N[C@@H](Cc1c[nH]c2ccccc12)C(N)=O)C(=O)N[C@@H](Cc1c[nH]c2ccccc12)C(=O)N[C@@H](CCCCN)C(=O)N[C@@H](CCCNC(=N)N)C(=O)N[C@@H](CCCCN)C(=O)N[C@@H](Cc1c[nH]c2ccccc12)C(N)=O [KM14, W-K-R-K-W-C-----C-W-K-R-K-W]
signs observed on tested animals ([2]; 8 mg/kg, in PBS, CD1 mice): immediate death

CC(=O)N[C@@H](Cc1ccccc1)C(=O)N[C@@H](CCCCN)C(=O)N[C@@H](CSSC[C@H](NC(=O)[C@H](CCCCN)NC(=O)[C@H](Cc1ccccc1)NC(C)=O)C(=O)N[C@@H](CCCNC(=N)N)C(=O)N[C@@H](CCCCN)C(=O)N[C@@H](Cc1ccc(O)cc1)C(N)=O)C(=O)N[C@@H](CCCNC(=N)N)C(=O)N[C@@H](CCCCN)C(=O)N[C@@H](Cc1ccc(O)cc1)C(N)=O [KM16, F-K-C-R-K-Y] (I: Ac-FKCRKY-NH2 / II: Ac-FKCRKY-NH2; disulfide I:3-II:3)
antifungal activity relative to comparator peptides (in words) ([1]; Candida albicans SC5314): very promising antifungal activity compatible with that of KM12 and KM14
percent of C. albicans killed at 5 μM concentration [1]: > 90%

CC(=O)N[C@H]1CSSC[C@@H](C(N)=O)NC(=O)[C@H](Cc2ccc(O)cc2)NC(=O)[C@H](CCCCN)NC(=O)[C@H](CCCNC(=N)N)NC(=O)[C@H](CCCCN)NC(=O)[C@H](Cc2ccccc2)NC1=O [KM17, C-F-K-R-K-Y-C] (Ac-CFKRKYC-NH2; disulfide 1-7)
antifungal activity relative to comparator peptides (in words) ([1]; Candida albicans SC5314): very promising antifungal activity compatible with that of KM12 and KM14
percent of C. albicans killed at 5 μM concentration [1]: > 90%

CC(=O)N[C@@H](Cc1ccc(O)cc1)C(=O)N[C@@H](CCCCN)C(=O)N[C@@H](CCCNC(=N)N)C(=O)N[C@@H](CCCCN)C(=O)N[C@@H](Cc1ccccc1)C(=O)N[C@@H](Cc1ccccc1)C(=O)N[C@@H](CCCCN)C(=O)N[C@@H](CCCNC(=N)N)C(=O)N[C@@H](CCCCN)C(=O)N[C@@H](Cc1ccc(O)cc1)C(N)=O [KM23, Y-K-R-K-F-F-K-R-K-Y] (Ac-YKRKFFKRKY-NH2)
LD50 in killing assays ([1]; Candida albicans SC5314): 62.5 nM
MIC [5]: 75.4 mg/L (≈ 50.1 µM)
MIC [6]: 1.2 to 4.7 mg/L
MIC [7]: 4.7 mg/L (≈ 3.12 µM)
MIC [8]: 2.4 to 4.7 mg/L
MIC [9]: 4.7 mg/L (≈ 3.12 µM)
MIC [10]: 2.4 mg/L (≈ 1.59 µM)

CC(=O)N[C@@H](Cc1ccc(O)cc1)C(=O)N[C@@H](CCCCN)C(=O)N[C@@H](CCCNC(=N)N)C(=O)N[C@@H](CCCCN)C(=O)N[C@@H](Cc1ccccc1)C(=O)N[C@@H](CCCCN)C(=O)N[C@@H](CCCNC(=N)N)C(=O)N[C@@H](CCCCN)C(=O)N[C@@H](Cc1ccc(O)cc1)C(N)=O [KM29, Y-K-R-K-F-K-R-K-Y] (Ac-YKRKFKRKY-NH2)
LD50 in killing assays ([1]; Candida albicans SC5314): 62.5 nM
MIC [5]: 67.5 mg/L (≈ 49.7 µM)
MIC [6]: 2.1 to 4.3 mg/L
MIC [7]: 4.2 mg/L (≈ 3.09 µM)
MIC [8]: 2.1 to 4.2 mg/L
MIC [9]: 4.2 to 8.4 mg/L
MIC [10]: 2.1 to 4.2 mg/L
